pEC50: −log10 of the molar value. Like-named read-outs stand apart in the source and are kept apart here.
Legend:
bNOS = target: T1, bNOS (Rattus norvegicus, UniProt P29476); assay: bNOS activity in homogenates of whole rat brains; type: biochemical
T1 construct: bNOS activity was measured using similar methods in homogenates of whole rat brains; from tissue; host or cells: homogenate of whole rat brains

J774 macrophages [1] = assay: Nitrite production by immunostimulated J774 macrophages (endotoxin 24 h, Griess); type: cell-based, mouse; conditions: Mus musculus, J774; endotoxin 10 μg/ml, 24 h (Table 1); read-out: EC50 for the inhibition of nitrite production by stimulated J774 macrophages
Experimental: (§1) This example illustrates the effect of selected mercapto derivatives on endotoxin-induced nitrite formation in J774.2 macrophages and on IL-1 gamma-interferon induced nitrite formation in cultured rat arctic smooth muscle cells. J774 macrophage cell lines were obtained from the American Type Culture Collection (ATCC) and were grown using standard methods in Dulbecco's Modified Eagle Medium (DMEM) supplemented with 10% fetal bovine serum, glutamine, penicillin (10,000 U/l) and streptomycin (10,000 U/l). Rat aortic smooth muscle cells (RASM) from Wistar rats were isolated by enzymatic dissociation using standard methods. The cells were positively identified as smooth muscle by indirect immunofluorescent staining for a-actin, using mouse anti-α-actin antibody and anti-mouse IgG fluorescein isothiocyanate (FITC) conjugate. RASM cells were grown in T-75 tissue culture flasks in 50% F12 nutrient medium and 50% Dulbecco's Modified Eagle Medium supplemented with 10% fetal bovine serum, glutamine, penicillin (10,000 U/l) and streptomycin (10,000 U/l). Cells were grown in 96-well plates for measure of nitrite production and cell viability. J774 macrophages were treated with endotoxin (10 μg/ml) for 24 hours; smooth muscle cells were treated with IL-1 (100 U/ml) and gamma-interferon (50 U/ml) for 48 hours.
Concentration of nitrite, the degradation product of NO in the culture medium, was determined by mixing equal volumes of medium with the Griess reagent (1% sulfanilamide/0.1% naphthylethylenediamine dihydrochloride/2.5% H3 PO4). The mixture was incubated for 10 minutes at room temperature to form the chromophore, then optical densities (OD) were determined at 550 nm (OD550). NaNO2 was used as the standard. Spectrophotometric measurements were performed in a dual-wavelength spectrophotometer.

ecNOS = target: T2, ecNOS (Bos taurus, UniProt P29473); assay: ecNOS activity from intimal scrapings of fresh bovine aortae (conversion of [3H]-L-arginine to [3H]-L-citrulline); type: biochemical
T2 construct: the intimal surface of fresh bovine aortae was scraped and homogenized; from tissue; host or cells: homogenate of intimal scrapings of fresh bovine aortae
Experimental: The intimal surface of fresh bovine aortae was scraped in the presence of homogenation buffer composed of 50 mM Tris-HCl, 0.1 mM ethylenediamine tetraacetic acid (EDTA) and 0.1 mM ethyleneglycol bis (beta-aminoethyl ether) (EGTA). Conversion of [^3 H]-L-arginine to [^3 H]-L-citrulline was measured in the homogenates as follows: cell homogenate (50 μl) was incubated in the presence of [^3 H]-L-arginine (10 μM, 5 kBq/tube), NADPH (2 mM), calmodulin (30 nM), tetrahydrobiopterin (5 μM) and calcium (2 mM) for 20 minutes at 37° C. in N-2-hydroxethyl piperazine-N-2-ethane sulfonic acid (HEPES) buffer (pH 7.5). Reactions were stopped by dilution with 1 ml of ice cold HEPES buffer (pH 5.5) containing EGTA (2 mM) and EDTA (2 mM). Reaction mixtures were applied to Dowex 50W (Na^+ form) columns and the eluted [^3 H]-L-citrulline activity was measured by scintillation counting. bNOS activity was measured using similar methods in homogenates of whole rat brains.
For a preparation rich in ecNOS, the intimal surface of fresh bovine aortae was scraped and homogenized. The homogenization buffer was composed of 50 mM tris-HCL, 0.1 mM EDTA, 0.1 mM EGTA and 1 mM phenylmethylsulfonyl chloride (pH 7.4). Cell suspensions were homogenized in the homogenization buffer on ice using a Tissue Tearor 985-370 homogenizer (BioSpec Products, Racine, Wis.). Conversion of [^3 H]-L-arginine to [^3 H]-L-citrulline was measured in the homogenates as described in Example 3 above.

J774.2 macrophages = assay: Nitrite production in immunostimulated J774.2 macrophages (E.coli LPS + murine gamma-interferon, 24 h); type: cell-based, mouse
Experimental: This example illustrates the effect of selected mercapto and seleno derivatives on nitrite production in J774.2 immunostimulated macrophages. The J774.2 mouse macrophage cell line was obtained from the ATCC and was cultured in DMEM with 4×10^-3 M L-glutamine and 10% fetal calf serum. Cells were cultured in 96-well plates with 200 μl culture medium until they reached 60-80% confluence. To induce INOS, fresh culture medium containing E.coli LPS (10 μg/ml) and murine gamma-interferon (IFN)(50 U/ml) was added. Nitrite accumulation in the cell culture medium in the absence or presence of various inhibitors was measured after 24 hours. Nitrite production, an indicator of NO synthesis, was measured in the supernatant of J774.2 macrophages by the Greiss reaction as described in Example 1 above.
This Example illustrates the effect of selected seleno derivatives on endotoxin-induced nitrite formation in J774.2 macrophages. The mouse macrophage cell line J774.2 obtained from the ATCC was cultured in DMEM with 4×10^-3 M L-glutamine and 10% fetal calf serum. Cells were cultured in 96-well plates with 200 μl culture medium until they reached 60-80% confluence. To induce iNOS, fresh culture medium containing E.coli LPS (10 μg/ml) and murine gamma-interferon (IFN)(50 U/ml) were added. Nitrite accumulation in the cell culture medium in the absence or presence of various inhibitors was measured after 24 hours. There was no detectable nitrite production by the J774.2 macrophages in the absence of immunostimulation. However, in the presence of IFN and LPS, nitrite concentration of the medium increased to 17±2 μM in the absence of inhibitor.

iNOS [2] = target: T3, iNOS (Rattus norvegicus, UniProt Q06518); assay: Inhibition of iNOS activity in tissue homogenates (Table 2); type: biochemical; design: bNOS in tissue homogenates; from tissue; host or cells: tissue homogenate; conditions: iNOS (Table 2)
iNOS [3] = target: T3, iNOS; assay: iNOS activity in lung homogenates from rats treated with bacterial endotoxin; type: biochemical; design: Lungs were obtained from rats which had been treated with bacterial endotoxin; from tissue; host or cells: lung homogenate from endotoxin-treated rats
Experimental: This Example illustrates the effect of selected mercapto and seleno derivatives on iNOS activity in lung homogenates prepared from rats treated with endotoxin. […] The homogenization buffer was composed of 50 mM tris-HCL, 0.1 mM EDTA, 0.1 mM EGTA and 1 mM phenylmethylsulfonyl chloride (pH 7.4). Cell suspensions were homogenized in the homogenization buffer on ice using a Tissue Tearor 985-370 homogenizer (BioSpec Products, Racine, Wis.).

[4] = tested on: constitutive and inducible NOS isoforms; conditions: background literature; cited from earlier work
J774 macrophages [5] = assay: Mitochondrial respiration (MTT reduction), cell viability of immunostimulated J774 macrophages; type: cell-based, mouse
Experimental: as §1
Mitochondrial respiration, an indicator of cell viability, was assessed by the mitochondrial-dependent reduction of MTT [3-(4,5-dimethylthiazol-2-yl)-2,5-diphenyltetrazolium bromide] to formazan. Cells in 96-well plates were incubated (37° C.) with MTT (0.2 mg/ml for 60 minutes). Culture medium was removed by aspiration and the cells solubilized in dimethylsulfoxide (DMSO) (100 μl). The extent of reduction of MTT to formazan within cells was quantitated by measurement of OD550 using a microplate reader. The calibration curve for the reduction of MTT to formazan was prepared in DMSO. Formazan production by cells was expressed as a percentage of the values obtained from untreated cells.

[6] = ecNOS (Table 2), read-out: EC50 for inhibition of ecNOS activity in tissue homogenates

T1 sequence (P29476 whole entry): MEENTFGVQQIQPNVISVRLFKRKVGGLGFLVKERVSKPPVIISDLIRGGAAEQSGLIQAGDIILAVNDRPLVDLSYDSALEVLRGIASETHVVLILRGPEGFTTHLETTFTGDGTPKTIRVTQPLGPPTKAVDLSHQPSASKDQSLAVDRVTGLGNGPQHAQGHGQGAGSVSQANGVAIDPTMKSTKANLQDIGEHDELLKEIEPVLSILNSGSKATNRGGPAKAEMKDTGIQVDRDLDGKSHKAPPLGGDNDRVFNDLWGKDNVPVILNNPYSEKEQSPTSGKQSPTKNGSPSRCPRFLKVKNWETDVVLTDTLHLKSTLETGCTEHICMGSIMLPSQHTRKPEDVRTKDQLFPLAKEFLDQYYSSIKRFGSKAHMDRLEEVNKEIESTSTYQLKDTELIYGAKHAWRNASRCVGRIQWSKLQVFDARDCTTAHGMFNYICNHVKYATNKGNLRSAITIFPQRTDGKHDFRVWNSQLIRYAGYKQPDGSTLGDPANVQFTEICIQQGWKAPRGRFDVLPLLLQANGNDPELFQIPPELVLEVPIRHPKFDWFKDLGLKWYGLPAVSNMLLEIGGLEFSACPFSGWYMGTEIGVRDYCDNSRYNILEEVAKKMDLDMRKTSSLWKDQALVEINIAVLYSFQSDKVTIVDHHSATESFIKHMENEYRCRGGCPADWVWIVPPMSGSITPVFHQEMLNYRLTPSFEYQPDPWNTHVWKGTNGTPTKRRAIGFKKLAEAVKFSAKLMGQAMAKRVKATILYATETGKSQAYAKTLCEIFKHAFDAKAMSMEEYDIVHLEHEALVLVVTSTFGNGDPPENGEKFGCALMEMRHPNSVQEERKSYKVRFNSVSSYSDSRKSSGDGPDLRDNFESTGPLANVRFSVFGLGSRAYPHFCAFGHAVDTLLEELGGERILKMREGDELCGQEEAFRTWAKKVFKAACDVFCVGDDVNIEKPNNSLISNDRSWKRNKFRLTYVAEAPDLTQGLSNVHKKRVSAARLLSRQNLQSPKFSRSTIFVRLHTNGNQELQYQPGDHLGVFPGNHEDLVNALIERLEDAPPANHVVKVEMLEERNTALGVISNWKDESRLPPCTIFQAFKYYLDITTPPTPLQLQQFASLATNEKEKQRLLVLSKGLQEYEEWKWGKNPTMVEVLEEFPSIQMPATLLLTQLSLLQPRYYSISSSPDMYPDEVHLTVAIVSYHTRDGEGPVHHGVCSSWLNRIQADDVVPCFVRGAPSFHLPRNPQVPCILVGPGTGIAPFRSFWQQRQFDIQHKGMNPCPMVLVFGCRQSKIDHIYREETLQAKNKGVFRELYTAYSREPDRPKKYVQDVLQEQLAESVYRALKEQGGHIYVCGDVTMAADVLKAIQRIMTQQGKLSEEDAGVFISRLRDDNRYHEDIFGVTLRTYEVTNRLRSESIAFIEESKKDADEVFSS

For `N=C(N)NCCSSCCNC(=N)N` [GED, guanidinoethyldisulfide], the pEC50 (bNOS) was 3.74, the pEC50 (J774 macrophages [1]) was 6.00 and the “inhibition of ecNOS activity, in words” value (ecNOS) was “inhibited ecNOS activity less strongly than the L-NMA”. The pEC50 (ecNOS; [6]) was 3.20, the “inhibition of nitrite production, in words” value (J774.2 macrophages; IFN and LPS) was “dose-dependent inhibition of nitrite production” and the “potency relative to reference compound L-NMA” value (J774.2 macrophages; IFN and LPS) was “higher than the reference compound L-NMA”. For the same molecule, the activity at 1000 µM (J774.2 macrophages; Mus musculus, J774.2, 24 h, inhibitor concentration -3.000 log M (Table 3), read-out: NITRITE (% OF CONTROL)) was 0%, the activity at 100 µM (J774.2 macrophages; Mus musculus, J774.2, 24 h, inhibitor concentration -4.000 log M (Table 3), read-out: NITRITE (% OF CONTROL)) was 0% and the activity at 10 µM (J774.2 macrophages; Mus musculus, J774.2, 24 h, inhibitor concentration -5.000 log M (Table 3), read-out: NITRITE (% OF CONTROL)) was 7%. The activity at 1 µM (J774.2 macrophages; Mus musculus, J774.2, 24 h, inhibitor concentration -6.000 log M (Table 3), read-out: NITRITE (% OF CONTROL)) was 36%, the pEC50 (J774.2 macrophages; Mus musculus, J774.2, IFN and LPS, Example 9, read-out: EC50, inhibition of nitrite production) was 6.52 and the pEC50 (iNOS [2]) was 3.70. The pEC50 (iNOS [3]; comparing Tables 4 and 5, read-out: EC50 on iNOS) was 3.70, the “selectivity for iNOS” value (iNOS [3]; iNOS vs ecNOS EC50 values) was “relative selectivity of SEG and GED for iNOS” and the “iNOS ACTIVITY (%)” value (iNOS [3]; inhibitor concentration -3.000 log M) was 22.000%. For the same molecule, the “iNOS ACTIVITY (%)” value (iNOS [3]; inhibitor concentration -4.000 log M) was 57.000%, the “iNOS ACTIVITY (%)” value (iNOS [3]; inhibitor concentration -5.000 log M) was 100.000% and the “iNOS ACTIVITY (%)” value (iNOS [3]; inhibitor concentration -6.000 log M) was 100.000%. For the same molecule, the “iNOS ACTIVITY (%)” value (iNOS [3]; inhibitor concentration -7.000 log M) was 100.000% and the “inhibition of iNOS activity, in words” value (iNOS [3]; lung homogenates, rats treated with endotoxin) was “somewhat similar in their inhibitory effect on INOS activity”.

For `N=C(NCCC[C@H](N)C(=O)O)N[N+](=O)[O-]` [L-NA, N^G -Nitro-L-arginine, reference compound], the pEC50 (J774 macrophages [1]) was about 3.00 and the pEC50 (iNOS [2]) was 3.52.

For `COC(=O)[C@@H](N)CCCNC(=N)N[N+](=O)[O-]` [L-NAME, NG-nitro-L-arginine methyl ester, reference compound], the pEC50 (ecNOS; n=6, bovine aorta, read-out: EC50, dose dependent inhibition of ecNOS activity) is listed as 5.70 and the “NOS inhibition / isoform selectivity, in words” value [4] is listed as “inhibit both the constitutive and the inducible NOS isoforms to a similar extent”.

In the case of `N=C(N)NCCS` [MEG, mercaptoethylguanidine], the pEC50 (bNOS) was 4.22, the pEC50 (J774 macrophages [1]) was 4.89 and the pEC50 (ecNOS; [6]) was 3.96. The cellular viability (J774 macrophages [5]; 1 mM) was “a slight reduction in viability was observed”, the cellular viability (J774 macrophages [5]; effective doses 1-100 μM) was “did not decrease cellular viability” and the pEC50 (iNOS [2]) was 4.94.

Reference: US5929063A, “Mercapto and seleno derivatives as inhibitors of nitric oxide synthase” (priority 1995, dated 1999)
